Read-outs that look alike come from different tables or passages of the source.
Description: Feeding protocols—Clinically normal ponies of varying age and sex were conditioned on the control diet for 21 days prior to the trial. Horse 341 was a 6 year old gelding (173-193 Kg), 299 was a 12 year old mare (205-215 Kg), 164 was a 12 year old mare (206-290 Kg) and 166 was a 16 year old mare (143-164 Kg). During the conditioning period and throughout the trial, all ponies received alfalfa hay by free choice. The test groups were fed varying levels of fumonisin (15 to 44 ppm) for varying lengths of time.
Clinical chemistry, evaluation, and tissue collection—The following clinical chemistry parameters were also analyzed with blood: total bilirubin, direct bilirubin, urea nitrogen, alkaline phosphatase, AST/SGOT, creatine kinase, gamma glutamyl transaminase, and bile acids. The animals were observed intermittently through ut each day and behavior changes were noted. Animals that were euthanized or died underwent a routine necropsy, and brain, liver, and kidney were prepared for microscopic study.

## CCCC[C@@H](C)[C@@H](OC(=O)C[C@@H](CC(=O)O)C(=O)O)[C@H](C[C@@H](C)C[C@H](O)CCCC[C@@H](O)C[C@H](O)[C@H](C)N)OC(=O)C[C@@H](CC(=O)O)C(=O)O [fumonisin B1]
Pony 208, fumonisin feed (level not given), day 2
  AST/SGDT: 344 units
Pony 208, fumonisin feed (level not given), day 6
  AST/SGDT: 2130 units
Pony 208, fumonisin feed (level not given), day 10
  AST/SGDT: 1240 units
Pony 208, fumonisin feed (level not given), day 13
  AST/SGDT: 1010 units
Pony #164, feed 44 ppm, day 2
  AST/SGDT: 235 Units
Pony #164, feed 44 ppm, day 7
  AST/SGDT: 357 Units
Pony #164, feed 44 ppm, day 10
  AST/SGDT: 4000 Units
  clinical signs: ^1Pony was described as nervous and off feed from day 5; by day 9 was blind and down, and on day 10 had full clinical signs of ELEM and died that evening.
Pony #166, feed 44 ppm, after being put back on full feed
  clinical signs: ^2Pony was described as lethargic from day 5; off feed from day 8; later put back on full feed and exhibited CNS signs; was euthanized on day 45.
Pony #166, feed 44 ppm, day 2
  AST/SGDT: 199 Units
Pony #166, feed 44 ppm, day 7
  AST/SGDT: 215 Units
Pony #166, feed 44 ppm, day 10
  AST/SGDT: 1470 Units
Pony #166, feed 44 ppm, day 13
  AST/SGDT: 2080 Units
Ponies 164 and 166, feed 44 ppm
  clinical outcome: resulted in ELEM
Pony 164, feed 44 ppm
  time of death: 10 days
Pony 166, 44 ppm, day 10
  elevation in AST/SGOT: 7 fold
Pony 166, feed 44 ppm
  day of euthanasia: 45 days
Pony 341, 15 then 22 ppm, day 235
  clinical outcome: died with the symptoms of equine leucoencephalomalacia
Pony 341, 15 then 22 ppm, until between day 224 and 231
  serum AST/SGOT activities: essentially unaffected
